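96-well plates; 48 h exposure; 5 concentrations. Endpoints by linear interpolation between flanking doses. Not reached: highest tested concentration assigned. The concentration for 50% growth inhibition is given as GI50.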 Calls of active or inactive are those of the source. Cut-off read from the data, not from the text of the source: active = GI50 up to about 1.1 µM and inactive = higher.
What was measured:
Assay in all cases: NCI-60 cell line screen, 48 h
SK-OV-3 = test system: SK-OV-3
MDA-MB-435 = test system: MDA-MB-435
SK-MEL-2 = test system: SK-MEL-2
RPMI-8226 = test system: RPMI-8226
SNB-75 = test system: SNB-75
U-251 = test system: U-251
ACHN = test system: ACHN
TK-10 = test system: TK-10
OVCAR-8 = test system: OVCAR-8
NCI-H522 = test system: NCI-H522
NCI-H460 = test system: NCI-H460
SN12C = test system: SN12C
K562 = test system: K562
HCT-116 = test system: HCT-116
MDA-MB-231 = test system: MDA-MB-231
UACC-257 = test system: UACC-257
HOP-62 = test system: HOP-62
UACC-62 = test system: UACC-62
NCI/ADR-RES = test system: NCI/ADR-RES
EKVX = test system: EKVX

SMILES	GI50 (SK-OV-3)	GI50 (MDA-MB-435)	GI50 (SK-MEL-2)	GI50 (RPMI-8226)	GI50 (SNB-75)	GI50 (U-251)	GI50 (ACHN)	GI50 (TK-10)	GI50 (OVCAR-8)	GI50 (NCI-H522)	GI50 (NCI-H460)	GI50 (SN12C)	GI50 (K562)	GI50 (HCT-116)	GI50 (MDA-MB-231)	GI50 (UACC-257)	GI50 (HOP-62)	GI50 (UACC-62)	GI50 (NCI/ADR-RES)	GI50 (EKVX)
CCN(CCCl)c1cc(CN(C)C)cc(NC(=O)C23CCC(C(=O)Nc4cc(CN(C)C)cc(N(CC)CCCl)c4)(CC2)CC3)c1	0.372 µM (active)	1.39 µM (inactive)	2.39 µM (inactive)	1.35 µM (inactive)	1.01 µM (active)	0.764 µM (active)	2.22 µM (inactive)	8.49 µM (inactive)	1.11 µM (active)	0.202 µM (active)	0.0687 µM (active)	0.245 µM (active)	0.738 µM (active)	1.11 µM (active)	12.8 µM (inactive)	3.96 µM (inactive)	0.372 µM (active)	1.14 µM (inactive)	29.9 µM (inactive)	
COc1ccc(OC)c(/N=C/c2cc(OC)c(OC)c(OC)c2)c1	> 77.8 µM (inactive)	28 µM (inactive)	> 100 µM (inactive)	> 44.1 µM (inactive)	> 100 µM (inactive)	> 100 µM (inactive)	> 94.4 µM (inactive)	> 100 µM (inactive)	> 100 µM (inactive)	22.9 µM (inactive)	> 100 µM (inactive)	> 100 µM (inactive)	> 68.1 µM (inactive)	> 100 µM (inactive)	> 100 µM (inactive)	> 100 µM (inactive)	> 100 µM (inactive)	> 100 µM (inactive)	> 100 µM (inactive)	> 52.6 µM (inactive)
O/N=C1\C=Cc2nn(-c3ccccc3)nc2\C1=N/O	6.35 µM (inactive)	2.74 µM (inactive)	30.3 µM (inactive)	3.71 µM (inactive)	15.6 µM (inactive)	7.16 µM (inactive)	2.3 µM (inactive)	17.8 µM (inactive)	3.01 µM (inactive)	2.94 µM (inactive)	3.07 µM (inactive)	7.24 µM (inactive)	0.695 µM (active)	2.65 µM (inactive)	4.06 µM (inactive)	3.11 µM (inactive)	4.3 µM (inactive)	1.3 µM (inactive)	7.24 µM (inactive)	5.41 µM (inactive)
COC(=O)CCC(C)[C@H]1CCC2C3C(C[C@H](OC(C)=O)[C@@]21C)[C@@]1(C)CCC2(C[C@H]1C[C@H]3OC(C)=O)OOC1(CCCCC1)OO2 (stereo partly drawn)	54.5 µM (inactive)	36.2 µM (inactive)	52.7 µM (inactive)	1.99 µM (inactive)	21.2 µM (inactive)	12.7 µM (inactive)	11.2 µM (inactive)	> 100 µM (inactive)	17.6 µM (inactive)	9.33 µM (inactive)	10.8 µM (inactive)	36.6 µM (inactive)	10.3 µM (inactive)	5.58 µM (inactive)	18 µM (inactive)	19.1 µM (inactive)	2.99 µM (inactive)		49.2 µM (inactive)	4.04 µM (inactive)
COC(=O)CC1C2(C)C3=C(C)C(c4ccoc4)CC3OC2C2OC(=O)C3(C)C=CC(=O)C1(C)C23 (stereo not drawn)	4.11 µM (inactive)	0.656 µM (active)	1.64 µM (inactive)	0.34 µM (active)	3.01 µM (inactive)	1.48 µM (inactive)	1.2 µM (inactive)	2.28 µM (inactive)	1.02 µM (active)	0.575 µM (active)	1.15 µM (inactive)	0.859 µM (active)	0.474 µM (active)	0.889 µM (active)	1.22 µM (inactive)	1.95 µM (inactive)	3.28 µM (inactive)	1.46 µM (inactive)	2.04 µM (inactive)	1.36 µM (inactive)
COc1ccc(C/C=C(\C)CCO)cc1	> 100 µM (inactive)	> 100 µM (inactive)	> 100 µM (inactive)	19.7 µM (inactive)	> 100 µM (inactive)	> 100 µM (inactive)	> 100 µM (inactive)	> 100 µM (inactive)	> 100 µM (inactive)	> 100 µM (inactive)	> 100 µM (inactive)	> 100 µM (inactive)	> 100 µM (inactive)	> 100 µM (inactive)	> 100 µM (inactive)	> 100 µM (inactive)	> 100 µM (inactive)	> 100 µM (inactive)	> 100 µM (inactive)	> 100 µM (inactive)
COC(=O)CNC(=O)/C=C/[C@H](O[Si](C)(C)C(C)(C)C)[C@H](/C=C/C(=O)NCC(=O)OC)O[Si](C)(C)C(C)(C)C	> 25 µM (inactive)	> 25 µM (inactive)	> 25 µM (inactive)	> 25 µM (inactive)	> 25 µM (inactive)	> 25 µM (inactive)	> 25 µM (inactive)	> 25 µM (inactive)	> 25 µM (inactive)	> 25 µM (inactive)	> 25 µM (inactive)	> 25 µM (inactive)	> 25 µM (inactive)	> 25 µM (inactive)	> 25 µM (inactive)	> 25 µM (inactive)	> 25 µM (inactive)	> 25 µM (inactive)	> 25 µM (inactive)	> 25 µM (inactive)

From ChEMBL document CHEMBL1201862, “PubChem BioAssay data set” (2004)
